Target: T1, SLMO (Slowmo); MBP-SLMO (Drosophila melanogaster, UniProt Q9V3U9)
T1 construct: N-terminal MBP fusion from pMAL-c6T (BamHI/EcoRI), E. coli BL21(DE3), Ni-NTA purified; tag kept
T1 sequence (Q9V3U9 1-215): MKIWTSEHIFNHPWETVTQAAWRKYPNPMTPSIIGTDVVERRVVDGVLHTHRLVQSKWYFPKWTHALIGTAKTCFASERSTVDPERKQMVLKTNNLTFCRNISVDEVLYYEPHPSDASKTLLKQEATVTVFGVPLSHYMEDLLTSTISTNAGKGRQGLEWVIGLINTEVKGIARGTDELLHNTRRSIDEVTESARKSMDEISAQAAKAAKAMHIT
Test: liposome lipid transfer assay, NBD dequenching
Type: biochemical
Settings: labelled compound, donor liposomes PC:PE:Rhod-PE:NBD-PS 56:40:3:1, acceptor PC:PE:CL 55:40:5, no chemical conversion

For `CCCCCCCC/C=C\CCCCCCCC(=O)OC[C@H](COP(=O)(O)OC[C@H](N)C(=O)O)OC(=O)CCCCCCCCCCCNc1ccc([N+](=O)[O-])c2nonc12` [NBD-PS], the “liposome lipid transfer assay, NBD dequenching” value was “SLMO efficiently transported PS but not PE between liposomes in vitro”.
